Source: patent publication US4440786A, “Compounds with antiinflammatory and analgesic activity, process for the preparation thereof and pharmaceutical compositio ns therefrom” (Ausonia Farmaceutici s.r.l., priority 1981, dated 1984)
“Also recorded” adds a separate entry of the source. Read-outs that look alike come from different tables or passages of the source.

What was measured:
[1] = Subplantar edema caused by carrageenan (antiinflammatory activity); assay type: in vivo; design: Volume of Paw in No. of Hours after the Treatment: 0 / Volume of Paw in No. of Hours after the Treatment: 1 / Volume of Paw in No. of Hours after the Treatment: 2 / Volume of Paw in No. of Hours after the Treatment: 3 / Volume of Paw in No. of Hours after the Treatment: 4 / Volume of Paw in No. of Hours after the Treatment: 5: dose or concentration left out as unconfirmed; details: rats, oral; for AREA % Inhibition vs. Control / AREA Absolute Value: paw volume 0-5 h, acetylsalicylic acid 250, ibuprofen 100, paracetamol 100, diflunisal 25, MR 713 25 mg/kg
Text: The experiments have been carried out with rats and carrageenan has been used as the agent causing edema.
Subplantar Edema Caused by Carrageenan in Rats

[2] = Contorsions caused by phenylquinone (analgesic activity); assay type: in vivo; details: mice, oral; phenylquinone 30 min after; acetylsalicylic acid 250, ibuprofen 100, paracetamol 100, diflunisal 25, MR 713 25 mg/kg
Text: The analgesic activity has been tested in mice using the contorsion test caused by phenylquinone. […] Phenylquinone has been administered thirty minutes after the substance under test and the results obtained are reported in Table II.
Contorsions Caused by Phenylquinone in Mice

Acute toxicity, oral = assay type: in vivo; details: mice
[3] = Plasmatic levels half-life, oral; assay type: in vivo; details: rats, at equal dose
Experimental: The pharmacodynamic tests carried out in rats and administering MR 713 by the oral route in the doses of 25, 50, and 100 mg/kg, show a half-life time of plasmatic levels, which is possible to calculate in the dose of 25 mg/kg, of about eleven hours. […] The pharmacodynamic tests permit to administer one or at the most two daily doses of MR 713.

Solubility = assay type: physicochemical
[4] = rats fasted 18 h, oral, 6 h, MR 713 25 mg/kg

| Structure (SMILES) | AREA % Inhibition vs. Control [1] [%] | AREA Absolute Value [1] | % Inhibition vs. Controls (contorsions) [2] [%] | Average No. of Contorsions [2] | No. of Animals with Contorsions [2] | Average Size of Ulcer in mm (rat, in vivo, po, 25 mg/kg) [mm] | gastric lesions / gastric tolerability [4] | also measured |
| --- | --- | --- | --- | --- | --- | --- | --- | --- |
| O=C(O)c1cc(-c2ccc(F)cc2F)ccc1O [Diflunisal, diflunisal] | 30.0 | 190.7 | 99.1 | 0.2 ± 0.2 | 1/9 | 0.7 ± 0.4 |  | Volume of Paw in No. of Hours after the Treatment: 0 ([1]; 0 h): 21.2; Volume of Paw in No. of Hours after the Treatment: 1 ([1]; 1 h): 25.6; Volume of Paw in No. of Hours after the Treatment: 2 ([1]; 2 h): 29.7; Volume of Paw in No. of Hours after the Treatment: 3 ([1]; 3 h): 31.0; Volume of Paw in No. of Hours after the Treatment: 4 ([1]; 4 h): 33.4; Volume of Paw in No. of Hours after the Treatment: 5 ([1]; 5 h): 33.1 |
| CC(C)Cc1ccc(C(C)C(=O)O)cc1 (stereo not shown) [Ibuprofen, ibuprofen] | 40.0 | 163.7 | 99.1 | 0.2 ± 0.1 | 2/10 | 2.3 ± 0.7 | cause gastric lesions |  |
| O=C(O)COc1ccc(-c2ccc(F)cc2F)cc1 [MR 713, (2',4'-difluoro-4-biphenyl)oxyacetic acid] | 31.0 | 186.4 | 54.0 | 10.8 ± 2.8 | 9/10 | 0.3 ± 0.1 |  | antiinflammatory activity compared with reference drugs ([1]; MR 713 25 mg/kg, vs diflunisal same dose, paracetamol and ibuprofen four times larger dose, acetylsalicylic acid ten times larger dose, 25 mg/kg): essentially the same as diflunisal; also recorded: substantially superior to paracetamol even when the latter is used in doses four times larger; also recorded: lower than that of ibuprofen; also recorded: essentially equivalent to the activity of acetylsalicylic acid; acute toxicity (Acute toxicity, oral): very low acute toxicity; LD50 (Acute toxicity, oral; mouse, in vivo, body weight, read-out: DL50 (the source's name)): 790 mg/kg; half-life time of plasmatic levels, compared with other drugs [3]: substantially superior to the action of diflunisal; solubility in chlorinated hydrocarbons (Solubility; chlorinated hydrocarbons): insoluble; solubility in hot lower alcohols (Solubility; hot lower alcohols): soluble; solubility in water (Solubility; water): essentially insoluble; gastric lesions / gastric tolerability (rat, in vivo, po, 25 mg/kg): causes even less gastric lesions as compared with drugs which are well-known to be tolerated at the gastric level, such as paracetamol and diflunisal |
| CC(=O)Nc1ccc(O)cc1 [Paracetamol, p-acetylaminophenol] | 10.0 | 245.7 | 63.4 | 8.6 ± 3.3 | 5/10 | 0.6 ± 0.4 |  |  |
| CC(=O)Oc1ccccc1C(=O)O [acetylsalicylic acid, acetyl salicylic acid] | 33.0 | 182.4 | 100 | 0 | 0/10 | 3.7 ± 0.8 | cause gastric lesions |  |
